# From ChEMBL document CHEMBL1201862, “PubChem BioAssay data set” (2004)
# Calls of active or inactive are those of the source.
# How the values were obtained:
# [1] = molecular target: Nucleotide-binding oligomerization domain-containing protein 2 (Homo sapiens, UniProt Q9HC29); assay: NOD2 signaling inhibitors, cell-based, luminescence, uHTS, HEK293 (AID 1566); type: functional
# [2] = inhibitors of intracellular T. cruzi replication, confirmation, NIH3T3 host cells, beta-gal luminescence (AID 2044); type: functional, cell-based;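 further: intracellular parasites grown in NIH/3T3 mouse fibroblasts as host cells; luminescent beta-galactosidase reporter signal from transgenic T. cruzi replicating inside host cells; inhibitors lower the luminescence signal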
# [3] = tested on: HEK293; assay: cells; type: functional, cell-based; details: Homo sapiens
# [4] = tested on: HEK293; assay: cells; type: functional, cell-based; details: Homo sapiens; remark: listed apart in the source
# [5] = tested on: HEK293; assay: NOD2 signaling inhibitors in MDP-stimulated cells, cell-based, uHTS, luminescence (AID 2001); type: functional; details: Homo sapiens
# [6] = cytotoxicity toward NIH3T3 fibroblasts, dose response, counter-screen, cell-based, ATP luminescence, mouse fibroblasts (AID 2010); type: functional;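 further: cells exposed to compound for about 90 hours before reading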
# [7] = tested on: HEK293; assay: NOD1 signaling inhibitors, primary screen, cell-based, luminescence, uHTS (AID 1578); type: functional; details: Homo sapiens
# [8] = molecular target: T1, Short transient receptor potential channel 4 (Mus musculus, UniProt Q9QUQ5); assay: mouse TRPC4 channel activators, dose response, cell-based, HEK293 TRPC4/mu-opioid, Fluo-4 calcium (AID 434937); type: functional
# T1 sequence (Q9QUQ5 whole entry): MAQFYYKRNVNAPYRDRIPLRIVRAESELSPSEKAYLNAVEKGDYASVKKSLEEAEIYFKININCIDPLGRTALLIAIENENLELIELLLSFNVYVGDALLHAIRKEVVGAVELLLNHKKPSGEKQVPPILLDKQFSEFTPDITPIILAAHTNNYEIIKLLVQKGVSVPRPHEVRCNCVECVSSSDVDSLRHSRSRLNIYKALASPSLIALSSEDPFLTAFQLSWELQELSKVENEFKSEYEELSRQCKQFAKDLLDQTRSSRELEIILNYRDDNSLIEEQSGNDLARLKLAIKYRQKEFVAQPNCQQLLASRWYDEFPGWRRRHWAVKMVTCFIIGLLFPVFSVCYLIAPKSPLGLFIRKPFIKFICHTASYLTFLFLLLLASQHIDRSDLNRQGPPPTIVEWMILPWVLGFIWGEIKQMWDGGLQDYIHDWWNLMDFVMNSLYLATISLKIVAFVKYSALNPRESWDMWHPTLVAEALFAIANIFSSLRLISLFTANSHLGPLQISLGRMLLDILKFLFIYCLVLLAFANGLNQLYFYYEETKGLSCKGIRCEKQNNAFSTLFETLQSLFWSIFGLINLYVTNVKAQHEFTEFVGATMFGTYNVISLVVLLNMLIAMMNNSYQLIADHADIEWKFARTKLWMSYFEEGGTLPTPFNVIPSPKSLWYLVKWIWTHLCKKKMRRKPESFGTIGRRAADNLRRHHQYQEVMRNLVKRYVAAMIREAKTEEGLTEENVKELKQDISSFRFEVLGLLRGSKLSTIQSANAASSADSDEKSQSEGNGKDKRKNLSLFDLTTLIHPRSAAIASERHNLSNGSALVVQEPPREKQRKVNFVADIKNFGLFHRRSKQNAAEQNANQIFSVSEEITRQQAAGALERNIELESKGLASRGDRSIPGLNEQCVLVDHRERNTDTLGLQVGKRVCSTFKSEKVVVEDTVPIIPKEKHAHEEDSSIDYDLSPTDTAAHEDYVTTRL
# [9] = molecular target: Peroxisome proliferator-activated receptor gamma/Nuclear receptor coactivator 3 (Homo sapiens, UniProt P37231); type: functional;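 further: agonist potency for raising coactivator recruitment to the receptor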
# Peroxisome proliferator-activated receptor gamma/Nuclear receptor coactivator 3, sequence (P37231 whole entry): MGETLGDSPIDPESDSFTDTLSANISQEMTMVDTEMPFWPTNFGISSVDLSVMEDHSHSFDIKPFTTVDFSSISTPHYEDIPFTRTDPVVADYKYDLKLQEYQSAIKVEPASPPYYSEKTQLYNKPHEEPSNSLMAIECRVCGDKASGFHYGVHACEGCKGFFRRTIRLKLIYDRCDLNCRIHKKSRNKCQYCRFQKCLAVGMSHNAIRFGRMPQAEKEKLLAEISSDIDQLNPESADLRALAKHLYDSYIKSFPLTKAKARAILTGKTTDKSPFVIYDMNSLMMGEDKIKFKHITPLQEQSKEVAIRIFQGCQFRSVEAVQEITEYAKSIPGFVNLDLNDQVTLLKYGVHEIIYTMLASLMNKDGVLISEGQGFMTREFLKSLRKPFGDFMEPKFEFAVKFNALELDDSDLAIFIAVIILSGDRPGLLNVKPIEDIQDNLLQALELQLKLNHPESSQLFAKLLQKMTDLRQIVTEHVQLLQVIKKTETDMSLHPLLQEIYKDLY
# Peroxisome proliferator-activated receptor gamma/Nuclear receptor coactivator 3, sequence (Q9Y6Q9 whole entry, further chain): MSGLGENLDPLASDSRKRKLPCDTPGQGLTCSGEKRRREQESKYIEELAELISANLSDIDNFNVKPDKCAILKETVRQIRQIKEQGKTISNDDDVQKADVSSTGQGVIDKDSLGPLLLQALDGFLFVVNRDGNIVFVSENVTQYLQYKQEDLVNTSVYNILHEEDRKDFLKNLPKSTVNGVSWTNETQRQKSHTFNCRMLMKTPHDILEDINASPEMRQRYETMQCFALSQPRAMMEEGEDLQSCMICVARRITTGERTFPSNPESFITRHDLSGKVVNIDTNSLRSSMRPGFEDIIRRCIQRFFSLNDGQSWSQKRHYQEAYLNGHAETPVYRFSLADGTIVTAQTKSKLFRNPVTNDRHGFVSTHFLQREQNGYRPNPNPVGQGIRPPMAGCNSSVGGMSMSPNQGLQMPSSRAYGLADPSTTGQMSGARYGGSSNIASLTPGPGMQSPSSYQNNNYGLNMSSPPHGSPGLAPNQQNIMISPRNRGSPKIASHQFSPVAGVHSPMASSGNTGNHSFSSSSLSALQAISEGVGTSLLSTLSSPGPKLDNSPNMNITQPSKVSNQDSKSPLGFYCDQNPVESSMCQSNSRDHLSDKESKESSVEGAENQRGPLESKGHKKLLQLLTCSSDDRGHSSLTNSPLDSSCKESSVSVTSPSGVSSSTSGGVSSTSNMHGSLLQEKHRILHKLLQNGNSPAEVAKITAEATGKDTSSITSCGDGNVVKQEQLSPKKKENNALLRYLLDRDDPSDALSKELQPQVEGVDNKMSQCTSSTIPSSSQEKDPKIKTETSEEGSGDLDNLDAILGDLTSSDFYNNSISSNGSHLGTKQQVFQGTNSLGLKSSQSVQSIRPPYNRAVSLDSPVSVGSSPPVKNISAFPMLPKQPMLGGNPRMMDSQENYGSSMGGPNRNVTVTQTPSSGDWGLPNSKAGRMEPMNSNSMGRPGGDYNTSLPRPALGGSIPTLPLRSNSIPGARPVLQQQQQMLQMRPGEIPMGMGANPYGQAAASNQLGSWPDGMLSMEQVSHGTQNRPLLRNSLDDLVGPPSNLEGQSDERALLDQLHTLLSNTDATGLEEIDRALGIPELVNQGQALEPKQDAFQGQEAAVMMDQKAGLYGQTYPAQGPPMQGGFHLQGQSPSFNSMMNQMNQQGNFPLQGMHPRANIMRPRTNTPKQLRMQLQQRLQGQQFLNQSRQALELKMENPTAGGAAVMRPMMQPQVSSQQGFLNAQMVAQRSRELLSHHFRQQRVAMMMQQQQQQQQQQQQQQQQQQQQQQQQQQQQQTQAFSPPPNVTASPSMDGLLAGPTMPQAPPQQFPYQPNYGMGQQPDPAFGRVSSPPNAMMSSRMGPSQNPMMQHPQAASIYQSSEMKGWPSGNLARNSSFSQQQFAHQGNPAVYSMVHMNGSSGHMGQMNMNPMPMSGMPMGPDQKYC
# [10] = molecular target: Peroxisome proliferator-activated receptor gamma/Nuclear receptor coactivator 1 (Homo sapiens, UniProt P37231); type: functional;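 further: agonist potency as compounds enhance coactivator SRC-1 recruitment to PPARgamma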
# Peroxisome proliferator-activated receptor gamma/Nuclear receptor coactivator 1, sequence (P37231 whole entry): as the sequence (P37231 whole entry) above
# Peroxisome proliferator-activated receptor gamma/Nuclear receptor coactivator 1, sequence (Q15788 whole entry, further chain): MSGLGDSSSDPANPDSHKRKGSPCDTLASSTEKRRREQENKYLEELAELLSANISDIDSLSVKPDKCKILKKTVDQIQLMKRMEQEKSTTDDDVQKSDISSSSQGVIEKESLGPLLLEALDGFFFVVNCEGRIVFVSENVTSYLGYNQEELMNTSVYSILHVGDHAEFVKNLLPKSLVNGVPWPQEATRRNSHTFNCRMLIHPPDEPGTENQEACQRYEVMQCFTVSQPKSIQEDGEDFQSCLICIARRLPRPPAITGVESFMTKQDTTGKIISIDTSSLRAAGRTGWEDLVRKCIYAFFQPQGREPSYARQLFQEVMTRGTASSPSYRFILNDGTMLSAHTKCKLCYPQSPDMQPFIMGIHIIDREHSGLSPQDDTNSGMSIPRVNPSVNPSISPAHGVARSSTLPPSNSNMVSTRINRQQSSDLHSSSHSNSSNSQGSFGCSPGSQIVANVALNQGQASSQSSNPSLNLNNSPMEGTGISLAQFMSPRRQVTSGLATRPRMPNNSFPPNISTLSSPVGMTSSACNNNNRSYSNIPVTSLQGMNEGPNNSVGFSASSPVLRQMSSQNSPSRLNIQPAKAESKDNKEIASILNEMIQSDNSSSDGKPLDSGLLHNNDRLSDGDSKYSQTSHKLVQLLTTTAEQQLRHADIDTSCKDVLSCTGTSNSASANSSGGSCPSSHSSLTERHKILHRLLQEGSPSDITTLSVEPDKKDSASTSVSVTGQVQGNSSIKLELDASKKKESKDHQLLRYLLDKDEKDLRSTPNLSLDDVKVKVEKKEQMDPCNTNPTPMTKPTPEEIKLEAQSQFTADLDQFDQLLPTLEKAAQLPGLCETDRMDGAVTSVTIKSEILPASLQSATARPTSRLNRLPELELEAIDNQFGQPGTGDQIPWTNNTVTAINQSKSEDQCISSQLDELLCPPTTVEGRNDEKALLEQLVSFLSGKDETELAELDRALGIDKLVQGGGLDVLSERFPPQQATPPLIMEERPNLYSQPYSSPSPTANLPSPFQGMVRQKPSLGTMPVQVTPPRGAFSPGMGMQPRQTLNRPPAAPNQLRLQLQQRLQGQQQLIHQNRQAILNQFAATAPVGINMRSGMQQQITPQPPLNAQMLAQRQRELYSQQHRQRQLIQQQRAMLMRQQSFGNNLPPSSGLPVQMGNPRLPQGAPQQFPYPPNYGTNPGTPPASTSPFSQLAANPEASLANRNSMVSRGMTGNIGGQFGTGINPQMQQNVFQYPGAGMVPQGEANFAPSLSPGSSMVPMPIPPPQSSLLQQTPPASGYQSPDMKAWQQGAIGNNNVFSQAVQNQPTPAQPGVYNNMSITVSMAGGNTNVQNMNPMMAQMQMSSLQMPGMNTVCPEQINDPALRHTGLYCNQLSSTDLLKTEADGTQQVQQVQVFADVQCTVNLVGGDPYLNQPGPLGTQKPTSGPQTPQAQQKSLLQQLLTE
# [11] = molecular target: Peroxisome proliferator-activated receptor gamma/Nuclear receptor coactivator 2 (Homo sapiens, UniProt P37231); type: functional;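 further: agonist potency for raising coactivator recruitment to the receptor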
# [12] = molecular target: Cytochrome P450 2C19 (Homo sapiens, UniProt P33261); assay: Cytochrome panel assay with activity outcomes. Panel member name: p450-cyp2c19 Compounds with AC50 equal or less than 10 uM are considered active; type: functional
# [13] = molecular target: Cytochrome P450 2C9 (Homo sapiens, UniProt P11712)
# Cytochrome P450 2C9, sequence (P11712 whole entry): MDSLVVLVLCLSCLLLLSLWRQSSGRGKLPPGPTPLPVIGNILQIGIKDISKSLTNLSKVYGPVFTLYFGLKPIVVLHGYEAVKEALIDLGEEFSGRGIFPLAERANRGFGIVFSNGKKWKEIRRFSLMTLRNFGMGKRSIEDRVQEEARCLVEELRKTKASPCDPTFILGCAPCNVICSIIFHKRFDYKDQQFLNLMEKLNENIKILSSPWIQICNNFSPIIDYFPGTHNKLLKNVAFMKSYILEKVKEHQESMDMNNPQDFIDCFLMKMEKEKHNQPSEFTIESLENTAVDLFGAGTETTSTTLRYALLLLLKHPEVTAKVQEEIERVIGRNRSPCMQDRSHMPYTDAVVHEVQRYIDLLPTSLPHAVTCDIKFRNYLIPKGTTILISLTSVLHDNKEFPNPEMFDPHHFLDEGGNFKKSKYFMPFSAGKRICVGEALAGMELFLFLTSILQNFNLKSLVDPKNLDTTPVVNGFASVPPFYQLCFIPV
# [14] = cells; type: functional
# [15] = tested on: Streptococcus; assay: Group A Streptococcus viability loss, dose response, counter-screen for streptokinase expression inhibitor project, luminescence, BacTiterGlo (AID 1915); type: functional, organism-based;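 further: potency for reduction of bacterial viability or growth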
# [16] = molecular target: T2, Streptokinase A (Streptococcus pyogenes serotype M1, UniProt P10520); assay: S. pyogenes streptokinase expression inhibitors, potency, dose response, plasminogen activation absorbance, OD405 (AID 1914); type: functional, Streptococcus pyogenes M1 GAS;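 further: secreted streptokinase activity via plasminogen activation per viability signal from cell pellet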
# T2 sequence (P10520 whole entry): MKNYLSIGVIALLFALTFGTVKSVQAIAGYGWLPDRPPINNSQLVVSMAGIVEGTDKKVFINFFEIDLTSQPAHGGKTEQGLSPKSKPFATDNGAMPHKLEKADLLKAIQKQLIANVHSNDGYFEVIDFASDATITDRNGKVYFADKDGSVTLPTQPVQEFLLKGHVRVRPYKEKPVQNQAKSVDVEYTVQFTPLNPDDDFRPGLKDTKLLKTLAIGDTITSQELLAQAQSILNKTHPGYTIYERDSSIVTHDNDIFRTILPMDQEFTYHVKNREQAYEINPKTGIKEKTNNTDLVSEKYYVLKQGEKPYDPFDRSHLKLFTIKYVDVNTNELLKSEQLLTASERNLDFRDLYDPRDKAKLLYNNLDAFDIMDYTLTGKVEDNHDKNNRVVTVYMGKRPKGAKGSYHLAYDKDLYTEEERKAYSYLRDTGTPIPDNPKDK
# [17] = tested on: Streptococcus sp. 'group A'; assay: growth inhibition of control SK(-) GAS strain, dose response, counter-screen for streptokinase expression inhibitor project, luminescence, kanamycin, BacTiterGlo, confirmation (AID 1900); type: functional, organism-based
# [18] = Vero E6 cell cytotoxicity, dose response, cytotoxicity control for non-replicating M. tuberculosis project, secondary assay (AID 492998); type: functional, VeroE6; details: Vero C1008
# [19] = THP-1 cell cytotoxicity, dose response, cytotoxicity control for non-replicating M. tuberculosis project (AID 489025); type: functional
# [20] = molecular target: T3, Voltage-gated N-type calcium channel alpha-1B subunit/Amyloid beta A4 precursor protein-binding family A member 1 (Homo sapiens, UniProt Q00975+Q02410); type: protein assay
# [21] = molecular target: Induced myeloid leukemia cell differentiation protein Mcl-1 (Homo sapiens, UniProt Q07820); type: functional
# Induced myeloid leukemia cell differentiation protein Mcl-1, sequence (Q07820 whole entry): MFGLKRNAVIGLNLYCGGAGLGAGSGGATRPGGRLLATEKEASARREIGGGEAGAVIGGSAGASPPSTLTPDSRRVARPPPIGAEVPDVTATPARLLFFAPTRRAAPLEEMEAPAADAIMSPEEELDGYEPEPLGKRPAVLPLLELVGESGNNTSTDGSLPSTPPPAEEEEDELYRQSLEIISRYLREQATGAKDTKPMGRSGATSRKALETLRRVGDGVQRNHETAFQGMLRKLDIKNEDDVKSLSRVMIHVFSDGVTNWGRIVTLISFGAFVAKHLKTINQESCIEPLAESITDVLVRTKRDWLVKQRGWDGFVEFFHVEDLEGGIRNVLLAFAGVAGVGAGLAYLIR
# [22] = molecular target: T3, Voltage-gated N-type calcium channel alpha-1B subunit/Amyloid beta A4 precursor protein-binding family A member 1; type: protein assay; remark: listed apart in the source
# [23] = molecular target: T4, Aminopeptidase N (Plasmodium falciparum FcB1/Columbia, UniProt O96935); assay: P. falciparum M1AAP inhibitors, biochemical, fluorogenic H-Leu-NHMec substrate, 1536-well (AID 1445); parameters: species or system Plasmodium falciparum 3D7, 3D7
# T4 sequence (O96935 whole entry): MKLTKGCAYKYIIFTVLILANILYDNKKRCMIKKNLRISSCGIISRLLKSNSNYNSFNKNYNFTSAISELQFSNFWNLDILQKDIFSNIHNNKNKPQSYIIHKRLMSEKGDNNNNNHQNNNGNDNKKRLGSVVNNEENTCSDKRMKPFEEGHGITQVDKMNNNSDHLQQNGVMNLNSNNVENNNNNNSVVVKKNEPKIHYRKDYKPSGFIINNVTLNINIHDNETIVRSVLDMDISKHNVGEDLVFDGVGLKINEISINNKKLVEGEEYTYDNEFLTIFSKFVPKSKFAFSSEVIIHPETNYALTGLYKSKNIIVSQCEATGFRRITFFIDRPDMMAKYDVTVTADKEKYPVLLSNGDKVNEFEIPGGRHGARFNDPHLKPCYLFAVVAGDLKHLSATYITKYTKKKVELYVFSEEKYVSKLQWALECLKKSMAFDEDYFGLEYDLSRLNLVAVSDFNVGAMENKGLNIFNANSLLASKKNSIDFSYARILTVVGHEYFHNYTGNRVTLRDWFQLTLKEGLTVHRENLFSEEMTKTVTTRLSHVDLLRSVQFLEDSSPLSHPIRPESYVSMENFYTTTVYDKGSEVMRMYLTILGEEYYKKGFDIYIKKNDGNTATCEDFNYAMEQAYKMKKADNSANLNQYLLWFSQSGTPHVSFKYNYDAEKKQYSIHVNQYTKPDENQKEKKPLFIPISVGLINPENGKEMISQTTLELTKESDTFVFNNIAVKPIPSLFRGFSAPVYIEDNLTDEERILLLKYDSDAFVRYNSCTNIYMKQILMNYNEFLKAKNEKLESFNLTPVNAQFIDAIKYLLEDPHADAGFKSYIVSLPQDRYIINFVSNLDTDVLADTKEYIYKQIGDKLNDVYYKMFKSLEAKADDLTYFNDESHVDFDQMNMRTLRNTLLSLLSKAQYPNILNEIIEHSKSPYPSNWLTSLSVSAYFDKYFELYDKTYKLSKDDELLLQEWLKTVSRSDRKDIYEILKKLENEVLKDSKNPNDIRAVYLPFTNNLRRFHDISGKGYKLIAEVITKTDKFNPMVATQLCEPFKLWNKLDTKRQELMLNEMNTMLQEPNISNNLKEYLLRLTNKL
# [24] = Luminescence Cell-Based Dose Response HTS to Identify Activators of Luciferase Translation or Activity in H4 […] Cells. [Related pubchem assays: 1829 (Project Summary), 1814 (Primary HTS)]; type: functional
# [25] = Luminescence Cell-Based Dose Confirmation HTS to Identify Activators of 5'UTR Stem-Loop Driven Alpha-Synuclein mRNA Translation in H4 Neuroglioblastoma Cells. [Related pubchem assays: 1829 (Project Summary), 1814 (Primary HTS)]; type: functional
# [26] = tested on: H4; assay: Luminescence Cell-Based Dose Response HTS to Identify Activators of 5'UTR Stem-Loop Driven Prion Protein mRNA Translation in H4 Neuroglioblastoma Cells. [Related pubchem assays: 1829 (Project Summary), 1814 (Primary HTS)]; type: functional; details: Homo sapiens
# [27] = HEp-2 cell cytotoxicity, dose response, cytotoxicity control for RSV inhibitor project, HTS (AID 2410); type: functional; details: human respiratory syncytial virus
# [28] = molecular target: T5, X-box-binding protein 1 (Homo sapiens, UniProt P17861); type: functional, Cricetulus griseus;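 further: confirmatory dose-response counter-screen serving a CHOP assay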
# T5 sequence (P17861 whole entry): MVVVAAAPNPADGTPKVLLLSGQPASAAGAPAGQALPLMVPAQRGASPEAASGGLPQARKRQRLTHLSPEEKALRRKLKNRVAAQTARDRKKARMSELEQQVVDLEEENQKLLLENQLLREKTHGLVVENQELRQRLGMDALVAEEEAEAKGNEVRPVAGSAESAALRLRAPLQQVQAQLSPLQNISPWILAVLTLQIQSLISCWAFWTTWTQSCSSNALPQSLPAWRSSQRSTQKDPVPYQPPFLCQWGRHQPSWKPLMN
smiles,measurement,setting,value
COc1cc(OC)c(OC)cc1/C=C1\CCC/C(=C\c2cc(OC)c(OC)cc2OC)C1=O,EC50,[1],13 µM (active)
same,EC50,[2],1.51 µM (active)
same,IC50,[3],5.03 µM (active)
same,IC50,[4],18.1 µM (active)
same,IC50,[5],6.27 µM (active)
same,EC50,[6],6.67 µM (active)
same,EC50,[7],15.5 µM (active)
Cc1cc(NC(=O)CN2CCc3ccccc3C2)nc2c1c(=O)oc1ccccc12,EC50,[8],1.19 µM (active)
CCN(CC)c1ccc(/C=N/c2cc(C)ccc2C)c(O)c1,EC50,[9],> 79.4 µM (not active)
same,EC50,[10],> 79.4 µM (not active)
same,EC50,[11],> 79.4 µM (not active)
CCCC12CN3CC(CCC)(CN(C1)C3C(O)C(O)C(O)CO)C2=O (stereo unspecified),AC50,[12],inconclusive
same,AC50,[13],inconclusive
O=C(CC(=O)c1cc(Cl)ccc1O)c1ccccc1,IC50,[14],9.73 µM (active)
same,EC50,[15],10.8 µM (active)
same,EC50,[16],> 150 µM (not active)
same,EC50,[17],1.08 µM (active)
same,CC50,[18],8.73 µM (active)
same,CC50,[19],14.6 µM (active)
COc1ccc(C(=O)Nc2cccc(/C=C(\CCC(=O)O)c3nc4ccccc4s3)c2)cc1,EC50,[15],22.9 µM (active)
same,IC50,[20],4.28 µM (active)
same,EC50,[16],> 50 µM (not active)
same,IC50,[21],4.32 µM (active)
same,IC50,[22],> 50 µM (inactive)
same,EC50,[17],7.83 µM (active)
same,IC50,[23],21.8 µM (active)
COCCn1c(=O)c(C)nc2cnc(N3CCN(C)CC3)nc21,AC50,[13],inconclusive
O=S(=O)(c1ccc(Cl)cc1)N1CCN2CCCC2C1 (stereo unspecified),EC50,[8],4.73 µM (active)
CN1CCN(NS(=O)(=O)c2cccs2)CC1,IC50,[20],51.3 µM (active)
same,IC50,[22],> 50 µM (inactive)
CCc1ccccc1N=C(S)NCc1ccc2c(c1)OCO2,AC50,[13],inconclusive
O=C(Nc1nc2ccccc2[nH]1)c1cccc(Cl)c1,IC50,[14],7.11 µM (active)
same,EC50,[15],69.4 µM (active)
same,EC50,[16],> 150 µM (not active)
same,EC50,[17],8.88 µM (active)
same,CC50,[18],> 20 µM (active)
same,CC50,[19],> 40 µM (active)
CN(CCc1nc2cc(Cl)ccc2[nH]1)Cc1nc(CC2CC2)no1,EC50,[8],5.31 µM (active)
Cn1c(=O)c(C(=O)NC2CCCCCCC2)c(O)c2ccccc21,EC50,[9],> 79.4 µM (not active)
same,EC50,[10],> 79.4 µM (not active)
same,EC50,[11],69.1 µM (not active)
same,EC50,[24],22.8 µM (active)
same,EC50,[25],15.6 µM (active)
same,EC50,[26],> 120 µM (not active)
CCc1cccc(CC)c1N=C(S)NCC(c1cccnc1)N(C)C (stereo unspecified),EC50,[8],0.168 µM (active)
O=C(NCc1ccco1)c1ccc(Cl)nc1,IC50,[20],26.5 µM (active)
same,IC50,[22],> 50 µM (inactive)
Cc1ccc(C(=O)Nc2ccc(N3CCCC3)cc2)cc1,IC50,[21],17.9 µM (not active)
same,EC50,[9],> 79.4 µM (not active)
same,EC50,[10],> 79.4 µM (not active)
same,EC50,[11],> 79.4 µM (not active)
Fc1ccc(-c2nn(-c3ccccc3)cc2CNCc2ccccc2)cc1,IC50,[14],21.6 µM (active)
same,CC50,[27],17.9 µM (active)
same,EC50,[8],5.31 µM (active)
same,Absolute IC50 (XBP1),[28],10 µM
same,CC50,[19],26 µM (active)
